Assay [1] deals with human PAR-2 (Protease-activated receptor-2) (human) (UniProt P55085). In words: cell-based or functional assay.
The target of assay [2] is T1, PAR-2 (Homo sapiens, UniProt P55085).
T1 sequence (P55085 26-397): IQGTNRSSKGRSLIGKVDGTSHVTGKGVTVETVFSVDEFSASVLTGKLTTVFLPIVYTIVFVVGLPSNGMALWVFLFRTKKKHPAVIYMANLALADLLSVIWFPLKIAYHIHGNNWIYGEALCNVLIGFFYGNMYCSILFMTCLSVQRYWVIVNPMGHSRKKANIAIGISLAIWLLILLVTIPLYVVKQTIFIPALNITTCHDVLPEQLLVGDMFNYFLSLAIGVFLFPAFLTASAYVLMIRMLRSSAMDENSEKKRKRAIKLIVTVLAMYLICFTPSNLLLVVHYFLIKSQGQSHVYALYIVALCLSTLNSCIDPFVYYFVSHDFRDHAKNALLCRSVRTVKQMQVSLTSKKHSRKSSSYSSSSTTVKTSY
In words: Intracellular calcium dynamics assay (modified Hawthorne et al. method) in HCT-15 cells. The assay is classed as cell-based. Also noted: endogenous in cells; host or cells: HCT-15 human colorectal adenocarcinoma cells. The note with it: for agonist activation compared with the comparative peptide SLIGKV-OH: HCT-15 cells, calcium assay, statement in words. An excerpt: The PAR-2 activation of peptide derivatives represented by the general formula (1) can be tested by known various methods. For example, PAR-2 activation of peptide derivates can be tested by the methods namely, “Hollenberg method” (Hollenberg, M. D., et al., Can. J. Physiol. Pharmacol., 75, 832-841 (1997)), “Kawabata et al. method” (Kawabata, A., et al., J. Pharmacol. Exp. Ther., 288, 358-370 (1999)), “Howthorne et al. method” (Howthorne et al., A High-Throughput Microtiter Plate-Based Calcium Assay for the Study of Protease-Activated Receptor 2 Activation, Analytical Biochemistry 290, 378-379 (2001)), and the like. The present inventors tested PAR-2 activation potency by the modified “Hawthorne et al. method”. More specifically the method is to assay intracellular calcium dynamic expressing human PAR-2 inherently. In this assay, under probenecid inhibiting anion-exchange transporter the inventors measured intracellular calcium dynamic mediated PAR-2 agonist(concentration variation) by a multiple-well plate reader wherein introducing Ca^2+ sensitive fluorescent dye and stimulating this cell by PAR-2 agonist.
This method is explained below in more detail.
Thereafter, the cells were stimulated with various concentration test compounds and measured at an excitation wavelength of 485 nm and at a measurement wavelength of 525 nm (cut-off 515 nm) with a fluorometer scanning a multiple well (Flex Station, Molecular Devices). As a comparative compound, SLIGKV-OH which is a known PAR-2 activated peptide was used.
On the technique in general: Calcium flux is commonly read through the fluorescence of an indicator in the cells.

For assay [3], the target named is T1, PAR-2. The note with it: relative to TRAP (tethered receptor agonist peptide); cited from earlier work.
Assay [4] has as its target T2, human PAR-2 (Protease-activated receptor-2) (human, UniProt P55085 37-397).
T2 sequence (looked up): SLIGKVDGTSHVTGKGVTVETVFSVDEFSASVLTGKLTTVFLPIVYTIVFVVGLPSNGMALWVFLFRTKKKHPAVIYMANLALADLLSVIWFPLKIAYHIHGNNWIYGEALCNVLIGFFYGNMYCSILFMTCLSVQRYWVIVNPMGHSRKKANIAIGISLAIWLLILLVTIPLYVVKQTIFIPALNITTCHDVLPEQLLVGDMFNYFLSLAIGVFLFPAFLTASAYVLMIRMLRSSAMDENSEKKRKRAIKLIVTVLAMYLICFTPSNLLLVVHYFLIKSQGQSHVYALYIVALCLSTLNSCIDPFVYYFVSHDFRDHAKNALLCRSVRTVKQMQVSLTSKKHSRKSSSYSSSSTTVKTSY
In words: cell-based or functional assay.

Broadly, the EC50 is the midpoint of the concentration-response curve.

Read-outs that look alike come from different tables or passages of the source. Square brackets hold non-standard residues; d marks the D form. Ends that are not written are not given here. Peptide text beside a SMILES is read from it. * marks the point of attachment. Arg(NO2) = N=C(NCCC[C@H](N)C(=O)O)N[N+](=O)[O-]; NHCH2CH2(piperidin-1-yl) = C1CCN(CCN*)CC1; Benzofuran(2-CO) = O=C(c1cc2ccccc2o1)*; Imidazole4carbonyl = O=C(c1cnc[nH]1)*; Isoxazole(3-carbonyl) = O=C(c1ccon1)*; Cha = N[C@@H](CC1CCCCC1)C(=O)O; Nicotinoyl = O=C(c1cccnc1)*; Picolinoyl = O=C(c1ccccn1)*; 2Furoyl = O=C(c1ccco1)*; X1 = Cc1cc(C(=O)*)oc1C; X2 = O=C(c1ccc(Br)o1)*; Bz = O=C(c1ccccc1)*

On to “2-furoyl-L-phenylalanyl-glycyl-glycyl-β-cyclohexyl-L-alanine 2-(1-piperidinyl)ethyl amide (peptide)”, for which the Agonist activity (EC50, µM); intracellular calcium, HCT-15 cells in assay [1] was found to be 2.9 µM. Consider “2-furoyl-β-cyclohexyl-L-alanyl-glycyl-glycyl-β-cyclohexyl-L-alanine 2-(1-piperidinyl)ethyl amide (peptide)”, for which, in assay [1], the Agonist activity (EC50, µM); intracellular calcium, HCT-15 cells worked out at 16.5 µM. On the same count and under the same terms, for “4,5-dimethyl-2-furoyl-β-cyclohexyl-L-alanyl-glycyl-glycyl-β-cyclohexyl-L-alanine 2-(1-piperidinyl)ethyl amide (peptide)” the value was 16.5 µM; for “5-bromo-2-furoyl-β-cyclohexyl-L-alanyl-glycyl-glycyl-β-cyclohexyl-L-alanine 2-(1-piperidinyl)ethyl amide (peptide)”, 0.7 µM. For the molecule `O=C(CNC(=O)[C@H](CC1CCCCC1)NC(=O)c1ccco1)NCC(=O)N[C@@H](CC1CCCCC1)C(=O)NCCN1CCCCC1` [Example 1, 2-furoyl-β-cyclohexyl-L-alanyl-glycyl-glycyl-β-cyclohexyl-L-alanyine 2-(1-piperidinyl)ethyl amide] (2Furoyl-[Cha]GG[Cha]-{NHCH2CH2(piperidin-1-yl)}), on PAR-2 [2], the EC50 came out at 16.5 ± 3.4 µM and the “agonist activation compared with the comparative peptide SLIGKV-OH” value is given as “almost same as the comparative peptide”. For the molecule `O=C(CNC(=O)[C@H](Cc1ccccc1)NC(=O)c1ccco1)NCC(=O)N[C@@H](CC1CCCCC1)C(=O)NCCN1CCCCC1` [Example 2, 2-furoyl-L-phenylalanyl-glycyl-glycyl-β-cyclohexyl-L-alanine 2-(1-piperidinyl)ethyl amide] (2Furoyl-FGG[Cha]-{NHCH2CH2(piperidin-1-yl)}), the EC50 on PAR-2 [2] was 2.9 ± 0.6 µM.

Turning to `O=C(CNC(=O)[C@H](CC1CCCCC1)NC(=O)c1ccc(Br)o1)NCC(=O)N[C@@H](CC1CCCCC1)C(=O)NCCN1CCCCC1` [Example 3, 5-bromo-2-furoyl-β-cyclohexyl-L-alanyl-glycyl-glycyl-β-cyclohexyl-L-alanine 2-(1-piperidinyl)ethyl amide] (X2-[Cha]GG[Cha]-{NHCH2CH2(piperidin-1-yl)}), the EC50 on PAR-2 [2] is 0.7 ± 0.2 µM. As to `O=C(CNC(=O)[C@H](CC1CCCCC1)NC(=O)c1cccnc1)NCC(=O)N[C@@H](CC1CCCCC1)C(=O)NCCN1CCCCC1` [Example 4, nicotinoyl-β-cyclohexyl-L-alanyl-glycyl-glycyl-β-cyclohexyl-L-alanine 2-(1-piperidinyl)ethyl amide] (Nicotinoyl-[Cha]GG[Cha]-{NHCH2CH2(piperidin-1-yl)}), the EC50 at PAR-2 [2] worked out at 1.6 ± 0.1 µM. Still for that read-out and setting: for `O=C(CNC(=O)[C@H](CC1CCCCC1)NC(=O)c1cc2ccccc2o1)NCC(=O)N[C@@H](CC1CCCCC1)C(=O)NCCN1CCCCC1` [Example 5, benzofuran-2-carbonyl-β-cyclohexyl-L-alanyl-glycyl-glycyl-β-cyclohexyl-L-alanine 2-(1-piperidinyl)ethyl amide] ({Benzofuran(2-CO)}-[Cha]GG[Cha]-{NHCH2CH2(piperidin-1-yl)}) the value was 0.8 ± 0.2 µM. On the same count and under the same terms, under `O=C(CNC(=O)[C@H](CC1CCCCC1)NC(=O)c1ccon1)NCC(=O)N[C@@H](CC1CCCCC1)C(=O)NCCN1CCCCC1` [Example 6, isoxazole-3-carbonyl-β-cyclohexyl-L-alanyl-glycyl-glycyl-β-cyclohexyl-L-alanine 2-(1-piperidinyl)ethyl amide] ({Isoxazole(3-carbonyl)}-[Cha]GG[Cha]-{NHCH2CH2(piperidin-1-yl)}) stands 6.6 ± 3.1 µM. As to `O=C(CNC(=O)[C@H](CC1CCCCC1)NC(=O)c1ccccn1)NCC(=O)N[C@@H](CC1CCCCC1)C(=O)NCCN1CCCCC1` [Example 7, picolinoyl-β-cyclohexyl-L-alanyl-glycyl-glycyl-β-cyclohexyl-L-alanine 2-(1-piperidinyl)ethyl amide] (Picolinoyl-[Cha]GG[Cha]-{NHCH2CH2(piperidin-1-yl)}), the EC50 on PAR-2 [2] worked out at 7.6 ± 2.6 µM. As to `Cc1cc(C(=O)N[C@@H](CC2CCCCC2)C(=O)NCC(=O)NCC(=O)N[C@@H](CC2CCCCC2)C(=O)NCCN2CCCCC2)oc1C` [Example 8, 4,5-dimethyl-2-furoyl-β-cyclohexyl-L-alanyl-glycyl-glycyl-β-cyclohexyl-L-alanine 2-(1-piperidinyl)ethyl amide] (X1-[Cha]GG[Cha]-{NHCH2CH2(piperidin-1-yl)}), the “agonist activation compared with the comparative peptide SLIGKV-OH” value at PAR-2 [2] is “almost same as the comparative peptide”. In addition, on PAR-2 [2] (HCT-15 human colorectal adenocarcinoma cells expressing PAR-2 inherently, Ca2+ sensitive fluorescent dye, 2.5 mM probenecid, read-out: Agonist activity (EC50)), the EC50 was 16.5 ± 2.1 µM. In the case of `O=C(CNC(=O)[C@H](CC1CCCCC1)NC(=O)c1cnc[nH]1)NCC(=O)N[C@@H](CC1CCCCC1)C(=O)NCCN1CCCCC1` [Example 9, imidazole-4-carbonyl-β-cyclohexyl-L-alanyl-glycyl-glycyl-β-cyclohexyl-L-alanine 2-(1-piperidinyl)ethyl amide] (Imidazole4carbonyl-[Cha]GG[Cha]-{NHCH2CH2(piperidin-1-yl)}), on PAR-2 [2], the EC50 amounted to 14.9 ± 1.3 µM and the “agonist activation compared with the comparative peptide SLIGKV-OH” value was “almost same as the comparative peptide”.

With `CC(C)C[C@H](NC(=O)[C@H](CCCNC(=N)N[N+](=O)[O-])NC(=O)c1ccccc1)C(N)=O` [N^60-benzoyl-Arg(NO2)-Leu-NH2] (Bz-[Arg(NO2)]-Leu-NH2), the “PAR-2 activation, action strength relative to TRAP” value on PAR-2 [3] is reported as “about one of hundred action strength of TRAP”. In the case of “benzofuran-2-carbonyl-β-cyclohexyl-L-alanyl-glycyl-glycyl-β-cyclohexyl-L-alanine 2-(1-piperidinyl)ethyl amide (peptide)”, the Agonist activity (EC50, µM); intracellular calcium, HCT-15 cells in assay [1] is 0.8 µM.

Regarding “imidazole-4-carbonyl-β-cyclohexyl-L-alanyl-glycyl-glycyl-β-cyclohexyl-L-alanine 2-(1-piperidinyl)ethyl amide (peptide)”, the Agonist activity (EC50, µM); intracellular calcium, HCT-15 cells in assay [1] was 14.9 µM. Still for that read-out and setting: under “isoxazole-3-carbonyl-β-cyclohexyl-L-alanyl-glycyl-glycyl-β-cyclohexyl-L-alanine 2-(1-piperidinyl)ethyl amide (peptide)” stands 6.6 µM; under “nicotinoyl-β-cyclohexyl-L-alanyl-glycyl-glycyl-β-cyclohexyl-L-alanine 2-(1-piperidinyl)ethyl amide (peptide)”, 1.6 µM; under “picolinoyl-β-cyclohexyl-L-alanyl-glycyl-glycyl-β-cyclohexyl-L-alanine 2-(1-piperidinyl)ethyl amide (peptide)”, 7.6 µM. For the molecule SLIGKV-OH [SLIGKV-OH (Ser-Leu-Ile-Gly-Lys-Val-OH)], the “Agonist activity (EC50, µM); intracellular calcium, HCT-15 cells” value in assay [4] worked out at 15.6 µM.

Values taken from US7910556B2, “PAR-2 agonist” (Kowa Company, Ltd., priority 2004, dated 2011).
